# Reference: article PMC9213526, “Glycoside hydrolase from the GH76 family indicates that marine Salegentibacter sp. Hel_I_6 consumes alpha-mannan from fungi” (The ISME Journal, 2022)
# Tests used:
# [1] = target: T1, ShGH76 (Salegentibacter sp. Hel_I_6, UniProt A0ACD6BAU6); assay: HPAEC-PAD product analysis; assay type: biochemical
# T1 construct: gene GH76A; synthetic gene in pET28a(+) (NheI/XhoI), N-terminal 6xHis tag, E. coli BL21(DE3); modelled residues Asp54-Glu391
# [2] = target: T2, ShGH76 (Salegentibacter sp. Hel_I_6, UniProt A0ACD6BAU6, D116A/D117A, form not given); assay: X-ray crystallography of the complex, […] Å; assay type: binding; conditions: inactive double mutant ShGH76^Ala; co-crystallised in 1.6 M tri-sodium citrate; active site
# T2 construct: gene GH76A; synthetic gene in pET28a(+) (NheI/XhoI), N-terminal 6xHis tag, E. coli BL21(DE3); modelled residues Asp54-Glu391
# [3] = target: T3, ShGH76 (Salegentibacter sp. Hel_I_6, UniProt A0ACD6BAU6, D116N/D117N, form not given); assay: X-ray crystallography of the complex, […] Å; assay type: binding; conditions: inactive double mutant ShGH76^Asn; co-crystallised at pH 4.6 with 140 mM calcium chloride; active site
# T3 construct: gene GH76A; synthetic gene in pET28a(+) (NheI/XhoI), N-terminal 6xHis tag, E. coli BL21(DE3); modelled residues Asp54-Glu391
smiles,measurement,setting,value
"OC[C@H]1O[C@H](OC[C@H]2O[C@H](OC[C@H]3O[C@H](OC[C@H]4O[C@H](OC[C@H]5O[C@H](OC[C@H]6O[C@H](OC[C@H]7OC(O)[C@@H](O)[C@@H](O)[C@@H]7O)[C@@H](O)[C@@H](O)[C@@H]6O)[C@@H](O)[C@@H](O)[C@@H]5O)[C@@H](O)[C@@H](O)[C@@H]4O)[C@@H](O)[C@@H](O)[C@@H]3O)[C@@H](O)[C@@H](O)[C@@H]2O)[C@@H](O)[C@@H](O)[C@@H]1O (stereo partly drawn) [Man7, mannoheptose]",HPAEC-PAD product analysis,[1],"As is exemplarily shown for Man7 (Fig. 5D), ShGH76^WT hydrolyzed α-1,6-mannooligosaccharides almost completely"
"OC[C@H]1O[C@H](OC[C@H]2O[C@H](OC[C@H]3O[C@H](OC[C@H]4OC(O)[C@@H](O)[C@@H](O)[C@@H]4O)[C@@H](O)[C@@H](O)[C@@H]3O)[C@@H](O)[C@@H](O)[C@@H]2O)[C@@H](O)[C@@H](O)[C@@H]1O (stereo partly drawn) [Man4, α-1,6-mannotetrose]","X-ray crystallography of the complex, 1.90 Å",[2],"crystal structures of ShGH76^WT (apo-form), ShGH76^Asn (with Man3) and ShGH76^Ala (with Man4)"
"OC[C@H]1O[C@H](OC[C@H]2O[C@H](OC[C@H]3OC(O)[C@@H](O)[C@@H](O)[C@@H]3O)[C@@H](O)[C@@H](O)[C@@H]2O)[C@@H](O)[C@@H](O)[C@@H]1O (stereo partly drawn) [Man3, α-1,6-mannotriose]","X-ray crystallography of the complex, 1.47 Å",[3],"crystal structures of ShGH76^WT (apo-form), ShGH76^Asn (with Man3) and ShGH76^Ala (with Man4)"
